According to patent US10744213B2, “Fluorescent compounds for imaging of blood vessels and blood flow, and an in vivo screen for pro- and anti-angiogenic agents” (COLOSSUS BIOPHARMA CONSULTANTS COMPANY, LIMITED, priority 2017, dated 2020):

How the values were obtained:
[1] = Acute toxicity on zebrafish over a five-day regimen; design: species or system zebrafish (Danio rerio); conditions: in vivo, other: added to the fish culture (immersion), calculated using the Benchmark Dose Software (BMDS)
zebrafish blood vessels = experiment: Staining of zebrafish blood vessels; design: species or system zebrafish (Danio rerio); conditions: in vivo
From the text: (§1) Another embodiment of the invention comprises contacting live zebrafish, wild type or not, at various development stages, with the fluorescent compounds. To achieve the contact, the fluorescent compounds can in general be formulated as a solution, in DMSO for instance, and added to the fish culture. […] The fluorescent compounds enter the zebrafish vascular system as a result of such treatment, causing the blood vessels to fluoresce upon excitation and the fluorescence image of the blood vessels and the motion of blood flow can be observed with a microscope. The images can also be recorded with an image capturing device such as a camera. […] Further advantage of the current invention, which is in significant contrast to the transgenic zebrafish models, resides in the fact that the fluorescent compounds are exogenously administered and can be allowed to clear out of the test animals when so desired (see Figure I), such as when further procedures are required with the test animals and the fluorescence may interfere. […]

zebrafish = type: in vivo, zebrafish (Danio rerio); conditions: after staining at 10 μM for 1 hour, continuous culture in RO water
From the text: as §1

[2] = tested on: goldfish (Carassius auratus) blood serum; experiment: Native PAGE of blood serum stained with the fluorescent compound (UV, fluorescence); type: binding; conditions: 25 μM stain
cow blood serum = experiment: as above; type: binding; conditions: 25 μM stain

In the case of CCOC(=O)c1ccc(C2CC(c3cc4cc(OC)ccc4oc3=O)=NN2c2ccc(C(=O)OCC)cc2)cc1 (centres unmarked) [Diethyl 4,4′-(3-(6-methoxy-2-oxo-2H-chromen-3-yl)-4,5-dihydro-1H-pyrazole-1,5-diyl)dibenzoate], the LC50 at 5 days [1] is reported as 272 µM and the “Regular working concentration for staining zebrafish blood vessels” value (zebrafish blood vessels) is reported as 10 to 25 µM.
With CCOC(=O)c1ccc(N2N=C(c3cc4cc(OC)ccc4oc3=O)CC2c2ccccc2)cc1 (centres unmarked) [Ethyl 4-(3-(6-methoxy-2-oxo-2H-chromen-3-yl)-5-phenyl-4,5-dihydro-1H-pyrazol-1-yl)benzoate] the “Clearance of the dye (fading of green fluorescence)” value (zebrafish) was “incremental fading of green fluorescence over time within the first 6 hours”.
For CCOC(=O)c1cn(-c2ccccc2)nc1-c1ccccc1 [Ethyl 1,3-diphenyl-1H-pyrazole-4-carboxylate], the “Staining of serum bands on Native PAGE” value [2] was “UV as well as matching blue fluorescence” and the “Staining of serum bands on Native PAGE” value (cow blood serum) was “UV as well as matching blue fluorescence”.
